Our source for the IC50 values is patent US12624018B1, “Inhibitors of RIPK2 and medical uses thereof” (Odyssey Therapeutics, Inc., priority 2022, dated 2026).

Bounds are passed on as bounds.

T1 sequence (O43353 1-299 limits assumed): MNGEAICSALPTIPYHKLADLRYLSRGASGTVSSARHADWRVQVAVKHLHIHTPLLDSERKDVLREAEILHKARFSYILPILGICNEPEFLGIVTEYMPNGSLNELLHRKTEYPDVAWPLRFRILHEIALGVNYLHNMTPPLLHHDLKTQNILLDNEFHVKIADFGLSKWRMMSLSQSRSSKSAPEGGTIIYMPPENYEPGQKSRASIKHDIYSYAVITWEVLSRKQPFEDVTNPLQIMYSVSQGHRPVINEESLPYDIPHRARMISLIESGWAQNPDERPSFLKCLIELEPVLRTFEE

The assay addresses T1, RIPK2 enzyme (Homo sapiens, UniProt O43353).
T1 construct: purchased Carna 09-128
The assay is described as follows: RIPK2 inhibition (ADP-Glo Kinase Assay). The note with it: RIPK2 5 nM, ATP 150 μM, MBP substrate, read-out: RIPK2 IC50. Format: biochemical. How it is done:
RIPK2 inhibition was measured as follows:
The V9102 ADP-Glo Kinase Assay (including ultrapure ATP, 10 mM) was purchased from Promega. Native swine MBP was used as the substrate for the reaction and was purchased from SignalChem Biotech (catalogue number M42-51N). Assay buffer used for the assay consisted of the following components: MgCl2 (final concentration of 10 mM), Brij-35 (0.01%), DTT (final concentration of 2 mM), BSA (0.05%), EGTA (final concentration of 1 mM), and HEPE (pH 7.5 at final concentration of 50 mM).
Method: In a 384 well plate, 10 nL of test compound was dispensed using Echo550 and mixed with RIPK2 enzyme (final concentration of 5 nM) in assay buffer for 30 minutes at room temperature. […] Then ADP-Glo reagent was added and incubated for 60 min at room temperature. Last, Kinase Detection Reagent was added to the mixture and incubated for 60 min. The resulting luminescent signal was measured with an Envision reader to determine the amount of ADP produced. All plates contained vehicle controls (10 nL DMSO only) as a reference for the high control (0% kinase inhibition), and wells with no RIPK2 enzyme as reference for low control (100% kinase inhibition). Data were analyzed to determine the percent inhibition of ADP production in the presence of test compound using both low and high controls.
For orientation: In ADP-Glo the light output rises with the ADP produced.
For orientation: IC50 means the point on the concentration scale where inhibition reaches its midpoint. For `Cc1c(Oc2ccnc3ccc(C(=O)N4CCC(N)C4)cc23)ccc(CC(=O)Nc2cnn(C(C)(C)C)c2)c1F` (single isomer, unassigned) [Compound 353, 2-(4-((6-(3-amino-pyrrolidine-1-carbonyl)quinolin-4-yl)oxy)-2-fluoro-3-methyl-phenyl)-N-(1-(tert-butyl)-1H-pyrazol-4-yl)acetamide], the IC50 is below 2.5 nM.

Regarding `Cc1c(Oc2ccnc3ccc(C(=O)N4CCC(N)C4)cc23)ccc(CC(=O)Nc2cnn(C(C)(C)C)c2)c1F` (single isomer, unassigned) [Compound 354, 2-(4-((6-(3-amino-pyrrolidine-1-carbonyl)quinolin-4-yl)oxy)-2-fluoro-3-methyl-phenyl)-N-(1-(tert-butyl)-1H-pyrazol-4-yl)acetamide], the IC50 is below 2.5 nM.

For `Cc1cc(CC(=O)Nc2cnn(C(C)(C)C)c2)c(F)cc1Oc1ccnc2ccc(C(=O)N3CCC(O)C3)cc12` (single isomer, unassigned) [Compound 375, N-(1-(tert-butyl)-1H-pyrazol-4-yl)-2-(2-fluoro-4-((6-(3-hydroxy-pyrrolidine-1-carbonyl)quinolin-4-yl)oxy)-5-methyl-phenyl) acetamide], the half-maximal inhibitory concentration (IC50) was below 2.5 nM.

For the molecule `Cc1cc(CC(=O)Nc2cnn(C(C)(C)C)c2)c(F)cc1Oc1ccnc2ccc(C(=O)N3CCC(O)C3)cc12` (single isomer, unassigned) [Compound 376, N-(1-(tert-butyl)-1H-pyrazol-4-yl)-2-(2-fluoro-4-((6-(3-hydroxy-pyrrolidine-1-carbonyl)quinolin-4-yl)oxy)-5-methylphenyl) acetamide], the IC50 was below 2.5 nM.

On to `Cc1cc(CC(=O)Nc2cnn(C(C)(C)C)c2)c(F)cc1Oc1ccnc2ccc(C(=O)NC3CC(C#N)C3)cc12` (single isomer, unassigned) [Compound 395, 4-(4-(2-((1-(tert-butyl)-1H-pyrazol-4-yl)amino)-2-oxoethyl)-5-fluoro-2-methyl-phenoxy)-N-(-3-cyano-cyclobutyl) quinoline-6-carboxamide], for which the half-maximal inhibitory concentration (IC50) is below 2.5 nM.

For `Cc1cc(CC(=O)Nc2cnn(C(C)(C)C)c2)c(F)cc1Oc1ccnc2ccc(C(=O)NC3CC(C#N)C3)cc12` (single isomer, unassigned) [Compound 396, 4-(4-(2-((1-(tert-butyl)-1H-pyrazol-4-yl)amino)-2-oxoethyl)-5-fluoro-2-methyl-phenoxy)-N-(-3-cyano-cyclobutyl) quinoline-6-carboxamide], the IC50 is below 2.5 nM.

Consider `Cc1c(Oc2ccnc3ccc(C(=O)NC4CC(C#N)C4)cc23)ccc(CC(=O)Nc2cnn(C(C)(C)C)c2)c1F` (single isomer, unassigned) [Compound 403, 4-(4-(2-((1-(tert-butyl)-1H-pyrazol-4-yl)amino)-2-oxoethyl)-3-fluoro-2-methyl-phenoxy)-N-(-3-cyano-cyclobutyl) quinoline-6-carboxamide], for which the half-maximal inhibitory concentration (IC50) was below 2.5 nM.

As to `Cc1c(Oc2ccnc3ccc(C(=O)NC4CC(C#N)C4)cc23)ccc(CC(=O)Nc2cnn(C(C)(C)C)c2)c1F` (single isomer, unassigned) [Compound 404, 4-(4-(2-((1-(tert-butyl)-1H-pyrazol-4-yl)amino)-2-oxoethyl)-3-fluoro-2-methyl-phenoxy)-N-(-3-cyano-cyclobutyl) quinoline-6-carboxamide], the concentration for half-maximal inhibition (IC50) is below 2.5 nM.

As to `COc1ccc2nccc(Oc3ccc(CC(=O)Nc4cnn(C(C)(C)C)c4)c(F)c3)c2c1` [Compound 1, N-(1-(tert-butyl)-1H-pyrazol-4-yl)-2-(2-fluoro-4-((6-methoxy-quinolin-4-yl)oxy)phenyl) acetamide], the half-inhibitory concentration (IC50) is 5.6 nM.

As to `COc1cc2ncnc(Oc3ccc(CC(=O)Nc4cnn(C(C)(C)C)c4)c(F)c3)c2cc1S(=O)(=O)C(C)(C)C` [Compound 2, N-(1-(tert-butyl)-1H-pyrazol-4-yl)-2-(4-((6-(tert-butylsulfonyl)-7-methoxyquinazolin-4-yl)oxy)-2-fluorophenyl)acetamide], the IC50 was below 2.5 nM.

For `COc1cc2nccc(Oc3ccc(CC(=O)Nc4cnn(C(C)(C)C)c4)c(F)c3)c2cc1S(=O)(=O)C(C)(C)C` [Compound 3, N-(1-(tert-butyl)-1H-pyrazol-4-yl)-2-(4-((6-(tert-butylsulfonyl)-7-methoxyquinolin-4-yl)oxy)-2-fluorophenyl)acetamide], the concentration for half-maximal inhibition (IC50) was below 2.5 nM.

On to `CC(C)(C)n1cc(NC(=O)Cc2ncc(Oc3ccnc4ccc(F)cc34)cn2)cn1` [Compound 4], for which the IC50 is 61.9 nM.

With `CC(C)(C)n1cc(NC(=O)Cc2ncc(Oc3ncnc4ccc(F)cc34)cc2F)cn1` [Compound 5, N-(1-(tert-butyl)-1H-pyrazol-4-yl)-2-(3-fluoro-5-((6-fluoroquinazolin-4-yl)oxy)pyridin-2-yl)acetamide], the half-maximal inhibitory concentration (IC50) stood at 99.7 nM.

Turning to `COc1ccc2nccc(Oc3cnc(CC(=O)Nc4cnn(C(C)(C)C)c4)c(F)c3)c2c1` [Compound 6, N-(1-(tert-butyl)-1H-pyrazol-4-yl)-2-(3-fluoro-5-((6-methoxyquinolin-4-yl)oxy)pyridin-2-yl)acetamide], the IC50 was determined as 9 nM.

On to `CC(C)(C)n1cc(NC(=O)Cc2ncc(Oc3ncnc4ccc(Cl)cc34)cc2F)cn1` [Compound 7, N-(1-(tert-butyl)-1H-pyrazol-4-yl)-2-(5-((6-chloroquinazolin-4-yl)oxy)-3-fluoro-pyridin-2-yl)acetamide], for which the IC50 stood at 24 nM.

For the molecule `COc1ccc2ncnc(Oc3cnc(CC(=O)Nc4cnn(C(C)(C)C)c4)c(F)c3)c2c1` [Compound 9, N-(1-(tert-butyl)-1H-pyrazol-4-yl)-2-(3-fluoro-5-((6-methoxyquinazolin-4-yl)oxy)pyridin-2-yl)acetamide], the IC50 was determined as 21.8 nM.

Turning to `COc1ccc2ncnc(Oc3cnc(CC(=O)Nc4cnn(C(C)(C)C)c4)c(Cl)c3)c2c1` [Compound 10, N-(1-(tert-butyl)-1H-pyrazol-4-yl)-2-(3-chloro-5-((6-methoxyquinazolin-4-yl)oxy)pyridin-2-yl)acetamide], the IC50 was found to be 43.5 nM.

Consider `COc1ccc2ncnc(Oc3cnc(CC(=O)Nc4cc(C(C)(C)C)[nH]n4)c(F)c3)c2c1` [Compound 12, N-(5-(tert-butyl)-1H-pyrazol-3-yl)-2-(3-fluoro-5-((6-methoxyquinazolin-4-yl)oxy)pyridin-2-yl)acetamide], for which the IC50 was 11.6 nM.

Consider `COc1ccc2nccc(Oc3cnc(CC(=O)Nc4cc(C(C)(C)C)[nH]n4)c(F)c3)c2c1` [Compound 13, N-(5-(tert-butyl)-1H-pyrazol-3-yl)-2-(3-fluoro-5-((6-methoxyquinolin-4-yl)oxy)pyridin-2-yl)acetamide], for which the concentration for half-maximal inhibition (IC50) worked out at 3.5 nM.

For `CC(C)(C)n1cc(NC(=O)Cc2ccc(Oc3ncnc4ccc(N5CCOCC5)cc34)cc2F)cn1` [Compound 14, N-(1-(tert-butyl)-1H-pyrazol-4-yl)-2-(2-fluoro-4-((6-morpholinoquinazolin-4-yl)oxy)phenyl)acetamide], the IC50 was 23.7 nM.

Turning to `COc1ccc2ncnc(Oc3ccc(CC(=O)Nc4cc(C(C)(C)CO)[nH]n4)c(F)c3)c2c1` [Compound 15, 2-(2-fluoro-4-((6-methoxy-quinazolin-4-yl)oxy)phenyl)-N-(5-(1-hydroxy-2-methylpropan-2-yl)-1H-pyrazol-3-yl)acetamide], the IC50 worked out at 34.9 nM.

On to `CC(C)(C)n1cc(NC(=O)Cc2ccc(Oc3ncnc4ccc(OCCO)cc34)cc2F)cn1` [Compound 16, N-(1-(tert-butyl)-1H-pyrazol-4-yl)-2-(2-fluoro-4-((6-(2-hydroxyethoxy)quinazolin-4-yl)oxy)phenyl)acetamide], for which the IC50 is 9.3 nM.
